Data as given in patent US12054562B2, “Cell-permeable inhibitory agent and methods of use thereof in treatment of cognitive and mood disorders” (priority 2015, dated 2024).

How the values were obtained:
[1] = test system: α5GABAA receptor cell-surface expression; experiment: Receptor cell-surface ELISA assay in cultured hippocampal neurons; format: cell-based, mouse; conditions: peptide 2 μM, 24 hrs, astrocyte-conditioned medium (etomidate 1 μM, 1 hr)
Protocol: This experimental cell culture model was used to test the effects of the inhibitory peptide on an overexpression of α5GABAA receptors on the surface of neurons. The medium from astrocytes that were treated with etomidate (1 μM, 1 hr) (conditioned medium) was collected, and the medium bathing cultured hippocampal neurons was exchanged with the astrocyte-conditioned medium. The cells were incubated at 37° C., 5% CO2 with the peptide or scramble peptide (2 μM). After 24 hrs incubation, the cells were used for receptor cell-surface ELISA assay. The cells were fixed in 4% paraformaldehyde for 20 min in the presence (permeabilized) or absence (non-permeabilized) of 1% Triton-X100. The cells, after 3 times wash with cold PBS and blocked with 5% bovine album solution, were incubated with a α5 antibody (Santa Cruz Biotech Inc.) at 4° C. overnight. The next day the cells were thoroughly washed with PBS and incubated with the horseradish peroxidase (HRP)-conjugated secondary antibody for 2 hrs. With HRP substrate added and color developed in the medium, the results were determined with microplate reader.
The cell surface expression of α5 subunit was presented as the ratio of the colorimetric reading under non-permeabilized conditions to those permeabilized conditions. Consistent with the previous report, etomidate increases α5GABAA receptor surface expression. This increase was blocked by the specific peptide, but not the scramble peptide (FIG. 6A).
For astrocyte culture, cortical astrocytes were isolated from embryonic day 18 (E18) mouse embryos. Cells were allowed to grow to confluence in MEM and 10% fetal bovine serum (FBS; Life Technologies, Grand Island, New York) for 14 d. Cells were then enzymatically dissociated with trypsin-EDTA (0.05%; Life Technologies, Grand Island, New York), and passaged three times to obtain a nearly pure astrocytic culture. Astrocytes were then plated at a density of 25,000 cells per dish. […]

[2] = molecular target: T1, gephyrin and α5 subunit interaction (Mus musculus, UniProt Q8BUV3); experiment: Co-IP and WB of gephyrin and α5 subunit interaction; format: binding; conditions: immunoprecipitates from Example 1, hippocampal tissue
T1 construct: from tissue; host or cells: hippocampus of adult mice
T1 sequence (Q8BUV3 1-769): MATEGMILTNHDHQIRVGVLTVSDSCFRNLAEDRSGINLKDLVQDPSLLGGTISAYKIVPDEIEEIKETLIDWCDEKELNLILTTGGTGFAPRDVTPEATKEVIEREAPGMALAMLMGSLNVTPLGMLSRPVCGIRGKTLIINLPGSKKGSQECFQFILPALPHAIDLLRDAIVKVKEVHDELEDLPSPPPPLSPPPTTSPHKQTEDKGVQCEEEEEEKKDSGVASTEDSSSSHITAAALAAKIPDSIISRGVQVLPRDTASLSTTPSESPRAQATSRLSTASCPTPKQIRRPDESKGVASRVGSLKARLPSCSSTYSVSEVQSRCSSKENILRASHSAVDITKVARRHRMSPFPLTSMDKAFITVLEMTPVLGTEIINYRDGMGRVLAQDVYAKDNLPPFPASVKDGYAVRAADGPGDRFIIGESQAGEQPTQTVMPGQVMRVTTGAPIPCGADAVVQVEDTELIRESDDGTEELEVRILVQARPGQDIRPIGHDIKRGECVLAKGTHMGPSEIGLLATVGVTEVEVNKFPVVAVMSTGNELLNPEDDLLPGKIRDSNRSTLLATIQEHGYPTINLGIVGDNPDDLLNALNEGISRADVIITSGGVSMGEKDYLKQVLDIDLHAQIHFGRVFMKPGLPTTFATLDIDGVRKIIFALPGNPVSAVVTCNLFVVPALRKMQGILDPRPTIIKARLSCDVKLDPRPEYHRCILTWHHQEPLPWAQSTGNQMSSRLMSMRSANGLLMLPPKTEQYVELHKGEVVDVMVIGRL
Protocol: For the immunoprecipitation experiment, the tissue lysate containing […] protein (in 250 μl) was incubated with 20 μM (20 μl) of either the inhibitory peptide (SEQ ID NO:1) or scramble peptide (SEQ ID NO:5) without TAT sequence. One hour following the incubation, the antibodies (2-4 μg) against either α5 subunit (cat #sc—31417, Santa Cruz Biotechnology, Inc., 10410 Finnell St. Dallas, TX, 75220, USA) or radixin (cat #ab91312, Abcam Inc., c/o 913860, PO Box 4090 Stn A, Toronto, ON M5W 0E9), or 4 μg of non-specific IgG protein (cat #sc—2028, Santa Cruz Biotechnology, Inc., 10410 Finnell St. Dallas, TX, 75220, USA), were added to the lysate solution. After gently shaking overnight at 4° C., the immune complexes were precipitated with protein A/G plus-agarose beads (Santa Cruz Biotechnology, Inc., 10410 Finnell St. Dallas, TX, 75220, USA). Forty microliters of the A/G plus agarose beads were added to the immune complex solution and shaking gently for 2 h at 4° C. After spin with the microcentrifuge (Eppendorf Mini-Spin Plus, Marshall Scientific, 424 Route 125, Brentwood, NH 03833, USA), the immunoprecipitates were washed four times with ice-cold PBS, then resuspended in 2× Laemmli sample loading buffer containing 5% […], and boiled for 5 min. These samples were subjected to Western blot experiment. […]

NYFTKRGWAWDGKKAL [inhibitory peptide]
etomidate-induced increase in α5GABAA receptor surface expression [1]: blocked
gephyrin and α5 subunit interaction [2]: did not interfere
